In the NIST ThermoML archive (doi:10.1016/j.jct.2010.07.002):
± gives the expanded uncertainty stated by the source.

Experiment: xn = mol fraction of the nth substance listed
Conditions: 101.3 kPa, Liquid, Vibrating tube method

## [2H]O[2H] [water-d2] + C[N+](=O)[O-]
278.15 K, x1 = 0.001672
  mass density: 1158.21 ± 0.11 kg/m3
278.15 K, x1 = 0.002547
  mass density: 1158.18 ± 0.11 kg/m3
278.15 K, x1 = 0.004545
  mass density: 1158.14 ± 0.11 kg/m3
278.15 K, x1 = 0.00623
  mass density: 1158.09 ± 0.11 kg/m3
278.15 K, x1 = 0.008336
  mass density: 1158.04 ± 0.11 kg/m3
278.15 K, x1 = 0.009484
  mass density: 1158.01 ± 0.11 kg/m3
278.15 K, x1 = 0.01177
  mass density: 1157.96 ± 0.11 kg/m3
278.15 K, x1 = 0.01408
  mass density: 1157.9 ± 0.11 kg/m3
278.15 K, x1 = 0.01703
  mass density: 1157.83 ± 0.11 kg/m3
278.15 K, x1 = 0.02007
  mass density: 1157.77 ± 0.11 kg/m3
278.15 K, x1 = 0.02274
  mass density: 1157.71 ± 0.11 kg/m3
278.15 K, x1 = 0.02464
  mass density: 1157.67 ± 0.11 kg/m3
278.15 K, x1 = 0.02688
  mass density: 1157.62 ± 0.11 kg/m3
288.15 K, x1 = 0.001672
  mass density: 1144.71 ± 0.11 kg/m3
288.15 K, x1 = 0.002547
  mass density: 1144.68 ± 0.11 kg/m3
288.15 K, x1 = 0.004545
  mass density: 1144.64 ± 0.11 kg/m3
288.15 K, x1 = 0.00623
  mass density: 1144.59 ± 0.11 kg/m3
288.15 K, x1 = 0.008336
  mass density: 1144.54 ± 0.11 kg/m3
288.15 K, x1 = 0.009484
  mass density: 1144.51 ± 0.11 kg/m3
288.15 K, x1 = 0.01177
  mass density: 1144.46 ± 0.11 kg/m3
288.15 K, x1 = 0.01408
  mass density: 1144.4 ± 0.11 kg/m3
288.15 K, x1 = 0.01703
  mass density: 1144.34 ± 0.11 kg/m3
288.15 K, x1 = 0.02007
  mass density: 1144.27 ± 0.11 kg/m3
288.15 K, x1 = 0.02274
  mass density: 1144.21 ± 0.11 kg/m3
288.15 K, x1 = 0.02464
  mass density: 1144.17 ± 0.11 kg/m3
288.15 K, x1 = 0.02688
  mass density: 1144.12 ± 0.11 kg/m3
298.15 K, x1 = 0.001672
  mass density: 1131.14 ± 0.1 kg/m3
298.15 K, x1 = 0.002547
  mass density: 1131.11 ± 0.1 kg/m3
298.15 K, x1 = 0.004545
  mass density: 1131.07 ± 0.1 kg/m3
298.15 K, x1 = 0.00623
  mass density: 1131.02 ± 0.1 kg/m3
298.15 K, x1 = 0.008336
  mass density: 1130.97 ± 0.1 kg/m3
298.15 K, x1 = 0.009484
  mass density: 1130.94 ± 0.1 kg/m3
298.15 K, x1 = 0.01177
  mass density: 1130.89 ± 0.1 kg/m3
298.15 K, x1 = 0.01408
  mass density: 1130.83 ± 0.1 kg/m3
298.15 K, x1 = 0.01703
  mass density: 1130.77 ± 0.1 kg/m3
298.15 K, x1 = 0.02007
  mass density: 1130.7 ± 0.1 kg/m3
298.15 K, x1 = 0.02274
  mass density: 1130.64 ± 0.1 kg/m3
298.15 K, x1 = 0.02464
  mass density: 1130.6 ± 0.1 kg/m3
298.15 K, x1 = 0.02688
  mass density: 1130.55 ± 0.1 kg/m3
308.15 K, x1 = 0.001672
  mass density: 1117.49 ± 0.1 kg/m3
308.15 K, x1 = 0.002547
  mass density: 1117.46 ± 0.1 kg/m3
308.15 K, x1 = 0.004545
  mass density: 1117.42 ± 0.1 kg/m3
308.15 K, x1 = 0.00623
  mass density: 1117.37 ± 0.1 kg/m3
308.15 K, x1 = 0.008336
  mass density: 1117.32 ± 0.1 kg/m3
308.15 K, x1 = 0.009484
  mass density: 1117.3 ± 0.1 kg/m3
308.15 K, x1 = 0.01177
  mass density: 1117.24 ± 0.1 kg/m3
308.15 K, x1 = 0.01408
  mass density: 1117.19 ± 0.1 kg/m3
308.15 K, x1 = 0.01703
  mass density: 1117.12 ± 0.1 kg/m3
308.15 K, x1 = 0.02007
  mass density: 1117.06 ± 0.1 kg/m3
308.15 K, x1 = 0.02274
  mass density: 1117 ± 0.1 kg/m3
308.15 K, x1 = 0.02464
  mass density: 1116.97 ± 0.1 kg/m3
308.15 K, x1 = 0.02688
  mass density: 1116.92 ± 0.1 kg/m3
318.15 K, x1 = 0.001672
  mass density: 1103.75 ± 0.09 kg/m3
318.15 K, x1 = 0.002547
  mass density: 1103.73 ± 0.09 kg/m3
318.15 K, x1 = 0.004545
  mass density: 1103.67 ± 0.09 kg/m3
318.15 K, x1 = 0.00623
  mass density: 1103.63 ± 0.09 kg/m3
318.15 K, x1 = 0.008336
  mass density: 1103.58 ± 0.09 kg/m3
318.15 K, x1 = 0.009484
  mass density: 1103.56 ± 0.09 kg/m3
318.15 K, x1 = 0.01177
  mass density: 1103.5 ± 0.09 kg/m3
318.15 K, x1 = 0.01408
  mass density: 1103.45 ± 0.09 kg/m3
318.15 K, x1 = 0.01703
  mass density: 1103.38 ± 0.09 kg/m3
318.15 K, x1 = 0.02007
  mass density: 1103.32 ± 0.09 kg/m3
318.15 K, x1 = 0.02274
  mass density: 1103.26 ± 0.09 kg/m3
318.15 K, x1 = 0.02464
  mass density: 1103.22 ± 0.09 kg/m3
318.15 K, x1 = 0.02688
  mass density: 1103.17 ± 0.09 kg/m3
